Reference: patent US11484529B2, “Desmethylanethole trithione derivatives for the treatment of diseases linked to mitochondrial reactive oxygen species (ROS) production” (OP2 Drugs, priority 2017, dated 2022)

Tests used:
Sod2-KO mice = Sod2-KO mice (lifespan, heart SDH activity, liver Oil Red O staining); assay type: in vivo, mouse
From the text: Mice deficient in mitochondrial Mn-Superoxide Dismutase (Sod2-KO) on a CD1-background were used. This genetic alteration leads to an adverse phenotype and the death of animals at an average of 8 days old. Mitochondrial superoxide dismutase is a free radical scavenging enzyme which transforms superoxide (highly reactive) into hydrogen peroxide (less reactive), that could then cross mitochondrial membranes and be detoxified by matrix and cytosolic anti-oxidant systems. The aim of this study was to test if AOL could rescue the Sod2-KO phenotype through its activity on IQ superoxide production.
After birth, pups were genotyped (3 day-old) and the litter size was reduced to 6 pups per cage. Animals were then treated (AOL in Kolliphor®—5 mg/kg) or not (Kolliphor® only, noted KOL below). […] Two studies were conducted on two different generations from the same parents: lifespan; and succinate dehydrogenase activity in heart (SDH) and Oil Red O staining in liver. Animals were weighed and injected (intra-peritoneal) daily.
Succinate dehydrogenase activity is a marker of superoxide in the mitochondrial matrix. Thus, a lack of SOD2 is associated with a decrease of SDH activity in heart. The aim of this experiment was to test whether or not AOL could restore SDH activity in KO mice.
However, the direct link between superoxide/hydrogen peroxide production and liver lipid accumulation is not established. The aim of the study was to test the potency of AOL to prevent liver lipid accumulation in Sod2-KO mice.
Animals were injected once a day from 3 days old until their death.
In this study, animals were treated daily (5 mg/kg) from day 3 to day 5. Heart and liver were harvested at day 6.

[1] = tested on: isolated pancreatic islets from mice; test: Glucose-stimulated insulin secretion (GSIS) in isolated pancreatic islets; assay type: cell-based, mouse; settings: AOL 10 and 20 μM, 1 hour
Method: Pancreatic islets were isolated using the collagenase digestion method. Briefly, pancreas was inflated with Hanks solution containing 0.33 mg/mL of collagenase (Sigma-Aldrich), 5.6 mM glucose and 1% bovine serum albumin, pH 7.35, removed and kept at 37° C. for 6-9 minutes. After tissue digestion and exocrine removal by three consecutive washes, the islets were manually collected, under a binocular magnifier. Islets were left recovering from digestion by culturing for 20-24 hours in RPMI-1640 medium containing 11 mM glucose (Invitrogen, CA, USA) and supplemented with 2 mM glutamine, 200 IU/mL penicillin, 200 μg/mL streptomycin and 8% fetal bovine serum stripped with charcoal-dextran (Invitrogen).
For each static GSIS experiment, islets from two mice were first incubated for 2 hours at 37° C. in 3 mL Krebs-bicarbonate buffer solution (in mM): […] and 3 glucose, equilibrated with a mixture of 95% 02:5% C02, pH 7.4. […] Insulin secretion in each well was calculated as ng of insulin per islet and per hour of incubation, and then expressed as percentage of insulin secretion in 11 mM glucose vehicle group, which was considered 100%.

[2] = tested on: chronic hypoxic rats and monocrotaline-treated rats; test: Pulmonary hypertension rat models (chronic hypoxia, monocrotaline); assay type: in vivo
Method: Male Wistar rats (300-400 g) were separated into 3 groups and used 4 weeks later: • the first group (control or normoxic rats—N rats) was housed in ambient room air; • the second group (chronic hypoxic rats—CH rats) was exposed to chronic hypoxia for 3 weeks in a hypobaric chamber (50 kPa); and • the third group (MCT rats) was injected with a single intraperitoneal dose of monocrotaline at a dose of 60 mg/kg. MCT (Sigma, St Quentin Fallavier, France) was dissolved in an equal volume of HCl (1 M) and NaOH (1 M).
In each group, some animals were treated with AOL (Sulfarlem, EG Labo Eurogenerics. Crushed tablets mixed with food, fed ad libitum) and some other animals were untreated. Eaten food was weighed every day to estimate the AOL dose administered. 10 mg/kg/day was thus administered during the 3 weeks of experiment for the second and third groups.
Pulmonary hypertension was assessed by measuring both the mean pulmonary arterial pressure (mPAP) and right ventricle hypertrophy. To measure PAP, N, CH and MCT rats were anesthetized with pentobarbital sodium (Centravet) by intraperitoneal injection (60 mg/kg) and mPAP was measured, in closed-chest rats, through a catheter inserted in the right jugular vein, then through the right atria and the right ventricle into the pulmonary artery, and attached to a Baxter Uniflow gauge pressure transducer. Right ventricle hypertrophy was estimated by the ratio of right ventricle (RV) to left ventricle plus septum (LV+S) weight (Fulton index).
Pulmonary arteries (PA) remodeling was assessed by measuring the percentage of the PA medial thickness from sections of paraffin-embedded lung. Lung sections were first stained with hematoxylin and eosin (VWR) according to common histological procedure.

[3] = 5 mg/kg daily, day 3 to day 5, Oil Red O

COc1ccc(-c2cc(=S)ss2)cc1 [AOL, 5-(4-methoxyphenyl)-3H-1,2-dithiole-3-thione]
SDH activity in heart of KO mice (Sod2-KO mice; 5 mg/kg daily, day 3 to day 5): only a very slight increase in SDH activity
liver lipid droplets density in KO mice (Sod2-KO mice; [3]): lipid droplets density decreased
liver total lipid area in KO mice (Sod2-KO mice; [3]): able to restore the total lipid area
lifespan extension compared to untreated KO mice (Sod2-KO mice; 5 mg/kg i.p. daily from 3 days old): up to 2 days
body weight and body weight gain of KO mice (Sod2-KO mice; 5 mg/kg i.p. daily, day 8 to 12): tends to alleviate this effect
GSIS increase as compared to the 11 mM glucose vehicle group [1]: 65-75%
Fulton index (right ventricular hypertrophy) ([2]; 10 mg/kg/day in food): no effect on the Fulton index
reduction of pulmonary arteries diameter (PA remodeling) ([2]; CH rats, 10 mg/kg/day): 30%
mean pulmonary arterial pressure ([2]; MCT rats, 10 mg/kg/day in food, 3 weeks): decreased in MCT rats
mean pulmonary arterial pressure ([2]; normoxic (N) rats): no significant effect on the control group
